Laboratory results as given in patent publication US10023575B2, “Cyclic ether derivatives of pyrazolo[1,5-a]pyrimidine-3-carboxyamide” (Boehringer Ingelheim International GmbH, priority 2015, dated 2018).
Where two headings read alike, the source gives them in different places.

What was measured:
PDE 2A = PDE 2A (Homo sapiens (Human), UniProt O00408); assay: Phosphodiesterase (PDE) 2A assay with fluorescent substrate (IMAP, fluorescence polarization); format: biochemical; conditions: labeled cAMP 30 nM, read-out: PDE2 IC50
PDE 2A, sequence (O00408 whole entry, species assumed): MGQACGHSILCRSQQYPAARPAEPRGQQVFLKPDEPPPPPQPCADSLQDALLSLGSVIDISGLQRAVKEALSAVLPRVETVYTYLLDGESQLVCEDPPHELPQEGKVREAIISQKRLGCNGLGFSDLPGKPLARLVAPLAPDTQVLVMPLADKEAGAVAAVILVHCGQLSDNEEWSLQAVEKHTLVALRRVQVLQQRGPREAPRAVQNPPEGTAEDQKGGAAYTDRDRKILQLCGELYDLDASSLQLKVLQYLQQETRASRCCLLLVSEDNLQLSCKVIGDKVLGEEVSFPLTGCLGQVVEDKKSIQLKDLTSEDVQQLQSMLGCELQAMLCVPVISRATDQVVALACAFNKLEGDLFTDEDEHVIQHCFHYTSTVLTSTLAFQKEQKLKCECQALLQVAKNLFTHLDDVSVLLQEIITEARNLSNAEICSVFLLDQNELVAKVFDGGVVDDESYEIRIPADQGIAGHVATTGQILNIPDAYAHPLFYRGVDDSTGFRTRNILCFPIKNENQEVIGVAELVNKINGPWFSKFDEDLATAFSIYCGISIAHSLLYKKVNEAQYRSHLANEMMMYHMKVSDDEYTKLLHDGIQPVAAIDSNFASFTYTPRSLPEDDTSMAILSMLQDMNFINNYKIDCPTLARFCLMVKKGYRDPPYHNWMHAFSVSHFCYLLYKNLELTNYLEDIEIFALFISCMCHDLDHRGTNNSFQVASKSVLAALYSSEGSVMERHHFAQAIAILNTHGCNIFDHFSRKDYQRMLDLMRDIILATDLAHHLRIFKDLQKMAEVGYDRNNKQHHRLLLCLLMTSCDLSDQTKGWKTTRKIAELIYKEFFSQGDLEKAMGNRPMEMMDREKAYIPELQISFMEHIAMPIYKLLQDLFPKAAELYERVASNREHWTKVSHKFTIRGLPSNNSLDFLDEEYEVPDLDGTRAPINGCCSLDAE
Description: (§1) The PDE reaction cleaves cAMP to AMP. The IMAP system (Molecular Device) using fluorescence polarization (FP) as detection principle was used to measure enzyme activity. A fluorescent labeled cAMP was used as substrate for the reaction, generating a labeled AMP. The fluorescent AMP binds specifically to the large M(III)-based nano-particles which reduces the rotational speed of the substrate and thus increases its polarization.
(§2) The inhibition of PDE 2A or 10 enzyme activity was assessed using IMAP-Phosphodiesterase-cAMP fluorescence labeled substrate (Molecular Devices, Order No. R7506), IMAP TR-FRET screening express (Molecular Devices, Order No. R8160, the TR-FRET component will not be used) and PDE 2A or PDE10 protein expressed upon baculovirus infection in SF9 cells. The cells were incubated after infection for ˜3 days and protein production was confirmed by Western Blot. The cells were collected by centrifugation and the pellet frozen in liquid nitrogen before it was resuspended in PBS containing 1% Triton X-100 and protease inhibitors. After 45 min incubation on ice, the cell debris was removed by centrifugation (13.000 rpm, 30 min).
(§3) All reactions were performed in 384 well plates, Perkin Elmer black optiplates and IMAP reaction buffer with 0.1% Tween20 (kit component)
(§4) Compounds were serial diluted in DMSO. With an intermediate dilution step with reaction buffer DMSO concentration was reduced to achieve 1% DMSO in the assay reaction. Setup of the assay started with 10 μl enzyme (˜10 ng/well, depending on prep. batch), 5 μl compound, reaction was started by addition of 5 μl labeled cAMP (30 nM, final concentration), immediately mixed for 15 seconds on a Eppendorf mixmate (2000 rpm) followed by an incubation at room temperature for 90 minutes in the dark. Reaction is stopped by adding of 60 μl binding buffer for FP/cAMP (kit component).
(§5) Each assay plate contained wells with vehicle controls (1% DMSO) for the measurement of non-inhibited reaction (=100% control) and wells without enzyme as 0% controls.

PDE10 = PDE10 (Homo sapiens (Human), UniProt Q9Y233); assay: Phosphodiesterase (PDE) 10 assay with fluorescent substrate (IMAP, fluorescence polarization); format: biochemical; conditions: labeled cAMP 30 nM
PDE10, sequence (Q9Y233 whole entry): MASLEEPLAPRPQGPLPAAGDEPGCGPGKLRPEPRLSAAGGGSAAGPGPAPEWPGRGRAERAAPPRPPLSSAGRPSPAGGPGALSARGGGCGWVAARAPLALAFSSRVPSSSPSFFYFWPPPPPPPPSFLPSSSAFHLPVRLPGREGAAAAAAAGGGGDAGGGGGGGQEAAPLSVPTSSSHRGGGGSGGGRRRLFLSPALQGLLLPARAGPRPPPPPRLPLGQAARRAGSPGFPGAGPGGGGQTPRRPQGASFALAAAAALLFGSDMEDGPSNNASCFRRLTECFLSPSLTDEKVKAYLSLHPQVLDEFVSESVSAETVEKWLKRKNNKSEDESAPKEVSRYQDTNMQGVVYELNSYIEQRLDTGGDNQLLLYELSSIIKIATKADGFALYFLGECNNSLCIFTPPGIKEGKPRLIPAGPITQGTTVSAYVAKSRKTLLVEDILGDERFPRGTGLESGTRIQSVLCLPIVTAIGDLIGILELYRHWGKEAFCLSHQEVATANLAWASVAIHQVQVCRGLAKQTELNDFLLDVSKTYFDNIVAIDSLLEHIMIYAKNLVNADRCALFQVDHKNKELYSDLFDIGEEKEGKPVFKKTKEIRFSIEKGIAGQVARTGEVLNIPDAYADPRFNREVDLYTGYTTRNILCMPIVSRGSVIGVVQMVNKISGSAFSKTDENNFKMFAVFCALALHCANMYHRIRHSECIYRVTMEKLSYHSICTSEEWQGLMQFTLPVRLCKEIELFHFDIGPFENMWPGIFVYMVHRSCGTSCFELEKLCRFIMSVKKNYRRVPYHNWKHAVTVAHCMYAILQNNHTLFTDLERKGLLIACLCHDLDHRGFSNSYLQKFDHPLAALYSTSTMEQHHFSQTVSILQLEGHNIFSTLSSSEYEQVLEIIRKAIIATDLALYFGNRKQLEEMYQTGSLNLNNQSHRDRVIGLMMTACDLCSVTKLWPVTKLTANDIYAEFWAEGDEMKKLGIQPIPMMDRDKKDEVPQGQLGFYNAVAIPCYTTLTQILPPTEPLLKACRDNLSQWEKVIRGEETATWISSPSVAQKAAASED
Description: as §1, §2, §3, §4, §5

[1] = Plasma protein binding with equilibrium dialysis, human plasma; format: in vitro ADME; conditions: equilibrium dialysis 2 hours 37° C.; for fraction unbound at 2 h, 1 µM: human, pooled human plasma (with NaEDTA), pH 7.4, human plasma, read-out: PPB HUM % BINDING (converted); for PPB HUM % BINDING: human plasma, 1.0 μM
Excerpt: (§6) Plasma Protein Binding (Determination of Human and Rat Plasma Protein Binding with Equilibrium Dialysis)
(§7) This equilibrium dialysis (ED) technique is used to determine the approximate in vitro fractional binding of test compounds to human and rat plasma proteins.
(§8) Dianorm Teflon dialysis cells (micro 0.2) are used. Each cell consists of a donor and an acceptor chamber, separated by an ultrathin semipermeable membrane with a 5 kDa molecular weight cutoff.
(§9) Stock solutions for each test compound are prepared in DMSO at 1 mM and diluted to a final concentration of 1.0 μM. The subsequent dialysis solutions are prepared in pooled human and rat plasma (with NaEDTA)
(§10) Aliquots of 200 μL dialysis buffer (100 mM potassium phosphate, pH 7.4) are dispensed into the buffer chamber. Aliquots of 200 μL test compound dialysis solution are dispensed into the plasma chambers. Incubation is carried out for 2 hours under rotation at 37° C.
(§11) At the end of the dialysis period, the dialysate is transferred into reaction tubes. The tubes for the buffer fraction contain 0.2 ml Acetonitril/water (80/20). Aliquots of 25 μl of the plasma dialysate are transferred into deep well plates and mixed with 25 μl Acetonitril/water (80/20), 25 μl buffer, 25 μl calibration solution and 25 μl Internal Standard solution. Protein precipitation is done by adding 200 μl Acetonitrile. Aliquots of 50 μl of the buffer dialysate are transferred into deep well plates and mixed with 25 μl blank plasma, 25 μl Internal Standard solution and 200 μl Acetonitril. Samples are measured on HPLC-MS/MS-Systems and evaluated with Analyst-Software.
(§12) Percent bound is calculated with the formula: % bound=(plasma concentration−buffer concentration/plasma concentration)×100 and % free is calculated as difference.

[2] = Plasma protein binding with equilibrium dialysis, rat plasma; format: in vitro ADME; conditions: rat, pooled rat plasma (with NaEDTA), pH 7.4, rat plasma, equilibrium dialysis 2 hours 37° C., read-out: PPB RAT % BINDING (converted)
Excerpt: as §6, §7, §8, §9, §10, §11, §12

[3] = Metabolic stability in pooled human liver microsomes; format: in vitro ADME; conditions: 1 mg/mL protein, 1 μM compound, 37° C.; for half-life at 1 µM: human, pooled human liver microsomes, pH 7.6, human liver microsomes, read-out: Half-life t½ human; for Half-life t½ human: human liver microsomes
Description: The metabolic degradation of the test compound was assayed at 37° C. with pooled liver microsomes from various species. The final incubation volume of 100 μl per time point contains TRIS buffer pH 7.6 at room temperature (0.1 M), magnesium chloride (5 mM), microsomal protein (1 mg/mL for human and dog, 0.5 mg/mL for other species) and the test compound at a final concentration of 1 μM. Following a short preincubation period at 37° C., the reactions were initiated by addition of betanicotinamide adenine dinucleotide phosphate, reduced form (NADPH, 1 mM), and terminated by transferring an aliquot into solvent after different time points. […] The half-life was determined by the slope of the semi-logarithmic plot of the concentration-time profile.

[4] = In-vivo effect: animal experiments and sample analysis (plasma, brain, CSF concentration); conditions: rat, 0.5 h between administration and CSF sampling, doses of 10.0 or 5 μmol/kg
Description: In-Vivo Effect: Animal Experiments and Sample Analysis (CSF):
CSF samples were carefully collected by puncture of the cisterna magna under anesthaesia. Immediately after CSF sampling, blood was taken by heart puncture and brains were dissected out. Blood was collected in EDTA-coated microvettes and plasma was prepared by centrifugation. Concentration of the test compounds in plasma, CSF or brain homogenate was determined using HPLC-MS-MS.

[5] = brain homogenate, read-out: conc brain

IC50 (PDE 2A)	IC50 (PDE10)	fraction unbound at 2 h, 1 µM [1]	fraction unbound at 2 h, 1 µM [2]	half-life at 1 µM [3]	also measured	SMILES
30 nM	> 10000 nM	0.047	0.024	–	–	Cc1cnc2c(C(=O)NC3(c4ccc(C(F)(F)F)cc4F)CCCOC3)cnn2c1 (racemic) [Example 31]
31 nM	> 10000 nM	0.076	0.063	–	–	Cc1cnc2c(C(=O)NC3(c4ccc(C(F)(F)F)cc4F)CCOC3)cnn2c1 (racemic) [Example 35]
192 nM	> 10000 nM	0.056	0.065	> 2.17 h	–	O=C(NC1(c2ccc(C(F)(F)F)cc2)CCOC1)c1cnn2cc(C3CC3)cnc12 (racemic) [Example 37]
–	> 10000 nM	0.329	0.313	> 2.17 h	–	Cc1cnc2c(C(=O)NC3(c4ccc(C(F)(F)F)cc4F)CCOCC3O)cnn2c1 (racemic) [Example 46]
–	–	0.531	–	> 2.17 h	–	Cc1nn2cc(C3CC3)cnc2c1C(=O)NC1(c2ccc(C(F)(F)F)nc2)CCOCC1O (racemic) [Example 51]
–	–	0.183	–	–	–	CC1(O)COCCC1(NC(=O)c1cnn2cc(C3CC3)cnc12)c1ccc(C(F)(F)F)cc1F (racemic) [Example 53]
24 nM	> 10000 nM	–	–	–	PPB HUM % BINDING [1]: 84.4%; Half-life t½ human [3]: >2.17 h	O=C(NC1(c2ccc(C(F)(F)F)cc2F)COCC1O)c1cnn2cc(C3CC3)cnc12 (single isomer, unassigned) [Example 68]
1740 nM	> 10000 nM	–	–	–	PPB HUM % BINDING [1]: 90.7%; Half-life t½ human [3]: 0.883 h	O=C(NC1(c2ccc(C(F)(F)F)cc2F)COCC1O)c1cnn2cc(C3CC3)cnc12 (single isomer, unassigned) [Example 69]
–	> 10000 nM	0.37	0.257	> 2.17 h	concentration at 0.5 h [4, 5]: 1070 nM; concentration at 0.5 h ([4]; plasma, read-out: conc plasma): 2460 nM; concentration at 0.5 h ([4]; read-out: conc CSF): 261 nM	Cc1cnc2c(C(=O)NC3(c4ccc(C(F)(F)F)cc4F)CCOCC3O)cnn2c1 (single isomer, unassigned) [Example 81a]
–	–	0.156	0.178	> 2.17 h	concentration at 0.5 h [4, 5]: 449 nM; concentration at 0.5 h ([4]; plasma, read-out: conc plasma): 794 nM; concentration at 0.5 h ([4]; read-out: conc CSF): 61 nM	Cc1cnc2c(C(=O)NC3(c4ccc(C(F)(F)F)cc4F)CCOCC3(C)O)cnn2c1 (single isomer, unassigned) [Example 83a]
–	–	0.105	0.065	–	–	CC1(O)COCCC1(NC(=O)c1cnn2cc(C3CC3)cnc12)c1ccc(C(F)(F)F)cc1F (single isomer, unassigned) [Example 86a]
–	–	0.558	–	> 2.17 h	–	Cc1nn2cc(C3CC3)cnc2c1C(=O)NC1(c2ccc(C(F)(F)F)nc2)CCOCC1O (single isomer, unassigned) [Example 88b]
22 nM	> 10000 nM	0.085	0.053	2 h	–	Cc1cnc2c(C(=O)NC3(c4ccc(C(F)(F)F)cc4F)CCOCC3)cnn2c1 [Example 2]
266 nM	> 10000 nM	0.157	–	1.2 h	–	O=C(NC1(c2ccc(C(F)(F)F)cc2F)CCOCC1)c1cnn2cc(F)cnc12 [Example 3]
746 nM	> 10000 nM	–	–	–	–	Cc1cnc2c(C(=O)NC3(c4ccc(OC(F)F)c(F)c4)CCOCC3)cnn2c1 [Example 15]
537 nM	> 10000 nM	–	–	–	–	O=C(NC1(c2ccc(Cl)c(F)c2)CCOCC1)c1cnn2cc(C3CC3)cnc12 [Example 16]
39 nM	6940 nM	0.086	0.093	> 2.17 h	–	Cc1nn2cc(C3CC3)cnc2c1C(=O)NC1(c2ncc(C(F)(F)F)cc2F)CCOCC1 [Example 17]
129 nM	8630 nM	–	–	–	–	Cc1cnc2c(C(=O)NC3(c4ncc(C(F)(F)F)cc4F)CCOCC3)c(C)nn2c1 [Example 18]
519 nM	> 10000 nM	–	–	–	–	Cc1cnc2c(C(=O)NC3(c4ncc(C(F)(F)F)cc4F)CCOCC3)cnn2c1 [Example 19]
172 nM	> 10000 nM	–	–	–	–	O=C(NC1(c2ncc(C(F)(F)F)cc2F)CCOCC1)c1cnn2cc(C3CC3)cnc12 [Example 20]
119 nM	9920 nM	–	–	–	–	Cc1cnc2c(C(=O)NC3(c4ccc(C(F)(F)F)cn4)CCOCC3)c(C)nn2c1 [Example 22]
232 nM	> 10000 nM	–	–	–	–	O=C(NC1(c2ccc(C(F)(F)F)cn2)CCOCC1)c1cnn2cc(C3CC3)cnc12 [Example 23]
754 nM	> 10000 nM	–	–	–	–	Cc1cnc2c(C(=O)NC3(c4ccc(C(F)(F)F)cn4)CCOCC3)cnn2c1 [Example 24]
174 nM	> 10000 nM	–	–	–	–	Cc1cnc2c(C(=O)NC3(c4ccc(C(F)(F)F)nc4)CCOCC3)c(C)nn2c1 [Example 26]
534 nM	> 10000 nM	–	–	–	–	O=C(NC1(c2ccc(C(F)(F)F)nc2)CCOCC1)c1cnn2cc(C3CC3)cnc12 [Example 27]
834 nM	> 10000 nM	–	–	–	–	Cc1cnc2c(C(=O)NC3(c4ccc(C(F)(F)F)nc4)CCOCC3)cnn2c1 [Example 28]
661 nM	5930 nM	–	–	–	–	Cc1nn2cc(C3CC3)cnc2c1C(=O)NC1(c2cnc(C(F)(F)F)c(F)c2)CCOCC1 [Example 29]
25 nM	> 10000 nM	–	–	–	–	O=C(NC1(c2ccc(C(F)(F)F)cc2F)CCOCC1=O)c1cnn2cc(C3CC3)cnc12 (stereo not drawn) [Example 66]
50 nM	> 10000 nM	–	–	–	–	Cc1cnc2c(C(=O)NC3(c4ccc(C(F)(F)F)cc4F)CCOCC3=O)cnn2c1 (stereo not drawn) [Example 67]
